Reference: patent US12612392B2, “Compound, pharmaceutical compositions containing same, synthesis method therefor and use thereof” (SHENZHEN ZHONGGE BIOLOGICAL TECHNOLOGY CO., LTD., priority 2022, dated 2026)
pEC50, pIC50: −log10 of the molar value.

Legend:
[1] = tested on: HEK293T/17-ATF4 uORF-Luc-Puro monoclonal cells; assay: Cell activity test: ATF4 luciferase reporter, thapsigargin-induced stress; assay type: cell-based; conditions: Homo sapiens, HEK-293T; ATF4 reporter expression, 50 nM thapsigargin, 6 hours
Description: The ATF4 luciferase reporter plasmid consists of two parts, i.e., the 5′ untranslated region sequence of the ATF4 gene and the luciferase coding sequence. Specifically, the ATF4 5′ untranslated region sequence (NCBI database number BC022088.2) containing two upstream open reading frames (uORFs), and the firefly luciferase encoding gene were cloned into the pLVX-Puro vector (YouBio, VT1465). The lentivirus packaging plasmids were psPAX2 (YouBio, VT1444) and pMD2.G (YouBio, VT1443). HEK293T/17 cells were transfected with the above three plasmids simultaneously using X-tremeGENE 9 DNA transfection reagent, and after 48 hours, a culture medium containing lentivirus was collected. HEK293T/17 cells transduced with the virus were screened with 1 μg/mL puromycin, and then monoclonal cells were obtained by limiting dilution.
By using this cell line and the cold fluorescence readings, the translational regulation of ATF4 can be detected, and the activity of the eIF2B activator can be tested. The specific experimental process is as follows: 6000 HEK293T/17-ATF4 uORF-Luc-Puro monoclonal cells were plated in a 384-well plate and allowed to adhere overnight. The test compounds were dissolved in DMSO and added together with 50 nM thapsigargin to the cell culture medium and incubated for 6 hours, wherein the thapsigargin was used to cause cellular stress and upregulate the protein translation of ATF4. Six hours after the addition, the cells were lysed using the One-Glo Luciferase Assay Kit (Promega #E6120), and then the cold fluorescence values were read using the LUM program of the EnVision 2104 plate reader.
The ATF4 reporter expression % was calculated as follows:
[formula] • ave_vc: average signal value of negative control • ave_pc: average signal value of positive control • ave_sample: average signal value of sample
The dose-response curves were fitted, and the EC50 values were calculated.
The nonlinear regression log (inhibitor) vs. response—variable slope (four parameters) method of GraphPad 9 software was used to fit the corresponding relationship between the ATF4 reporter expression % and the compound concentration.
X-axis: log value of compound concentration; Y-axis: ATF4 reporter expression %; Top: evaluation of upper asymptote of curve; Bottom: evaluation of lower asymptote of curve; Hillslope: slope of the fitted curve.

[2] = target: T1, CYP2C9 (Homo sapiens, UniProt P11712); assay: P450 enzyme inhibition, CYP2C9; assay type: in vitro ADME; conditions: human liver microsome, substrate Diclofenac sodium
T1 construct: A phosphate buffer solution of liver microsomes was prepared; from tissue; host or cells: human liver microsomes
T1 sequence (P11712 whole entry): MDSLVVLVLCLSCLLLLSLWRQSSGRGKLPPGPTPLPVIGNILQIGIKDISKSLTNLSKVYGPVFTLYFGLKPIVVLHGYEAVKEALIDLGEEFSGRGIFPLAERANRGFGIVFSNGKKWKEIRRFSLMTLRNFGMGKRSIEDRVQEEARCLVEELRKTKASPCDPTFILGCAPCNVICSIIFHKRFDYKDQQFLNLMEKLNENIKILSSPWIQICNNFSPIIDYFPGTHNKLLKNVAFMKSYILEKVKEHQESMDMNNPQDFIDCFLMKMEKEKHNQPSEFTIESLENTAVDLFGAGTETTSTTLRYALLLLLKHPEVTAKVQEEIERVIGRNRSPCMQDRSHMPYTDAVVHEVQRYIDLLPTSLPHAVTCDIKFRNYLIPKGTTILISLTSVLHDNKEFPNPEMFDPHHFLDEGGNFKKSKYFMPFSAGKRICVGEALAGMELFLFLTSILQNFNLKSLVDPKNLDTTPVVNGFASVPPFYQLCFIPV
Experimental: A phosphate buffer solution of liver microsomes was prepared. 169 μL of the phosphate buffer solution of liver microsomes and 1 μL of working solutions of various concentrations of test compounds or positive control compounds were added to a 96-well plate. The culture plate was placed in a water bath and pre-heated at 37° C. for 15 minutes. After the incubation, 10 μL of substrates were added to the culture plate (1 μL of substrates and 9 μL of the K-Mg buffer solution were added to the plate for CYP3A4-T). The incubation mixture was mixed on a rotating mixer for 10 seconds, and then 20 μL of a 10 mM NADPH solution was added to start the reaction at a final concentration of 1 mM. The experiment was repeated twice. At the predetermined time points listed in Table 4, the reaction was quenched by adding 400 μL of the quenching solution (cold ACN containing 500 nM mephetedrine and 10 nM terfenadine). Centrifugation was performed at 3220 g for 50 minutes at 4° C. 100 μl of the supernatant was transferred to a new plate. The supernatant was diluted with 100 μL of pure water. The mixture was mixed evenly, and the sample was analyzed by UPLC-MS/MS.

[3] = Pharmacokinetic evaluation in mice; assay type: in vivo
Experimental: The test compounds were dissolved in vehicles to prepare clear solutions or homogeneous suspensions. […] Blood samples were collected at 0.083 h, 0.25 h, 0.5 h, 1 h, 2 h, 4 h, 8 h, and 24 h after the intravenous administration, and at 0.25 h, 0.5 h, 1 h, 2 h, 4 h, 6 h, 8 h, and 24 h after the oral administration. Plasma samples were centrifuged, and the supernatant was collected to prepare samples, which were then quantitatively analyzed by LC/MS/MS.

O=C(COc1ccc(Cl)c(F)c1)N[C@H]1CC[C@H](c2nnc(N3CC(OC(F)(F)F)C3)o2)CC1 [Compound 6]
pEC50 [1]: > 9.00 | pIC50 [2]: < 5.00 | pharmacokinetic properties in mice ([3]; Cl, T1/2, Cmax, AUC, F): excellent pharmacokinetic properties in mice | AUC(0-inf) ([3]; plasma, mouse IV (1 mg/kg)): 11.4 µg·h/mL | C0 ([3]; plasma, mouse IV (1 mg/kg)): 1240 ng/mL | clearance ([3]; plasma, mouse IV (1 mg/kg)): 1.46 mL/min/kg | half-life ([3]; plasma, mouse IV (1 mg/kg)): 6.35 h | Vd ([3]; plasma, mouse IV (1 mg/kg), read-out: Vss): 0.707 L/kg | AUC(0-inf) ([3]; plasma, mouse PO (30 mg/kg)): 516 µg·h/mL | Cmax ([3]; plasma, mouse PO (30 mg/kg)): 48000 ng/mL | Tmax ([3]; plasma, mouse PO (30 mg/kg)): 3.33 h | half-life ([3]; plasma, mouse PO (30 mg/kg)): 3.11 h | bioavailability ([3]; plasma, mouse PO (30 mg/kg) vs IV (1 mg/kg)): 161%
